Blank lines part the entries; values can stand above or below the compound they belong to.
Tests used:
[1] = tested on: elav-Gal4GS > UAS-hTDP-43 transgenic flies; assay: Lifespan of transgenic hTDP-43 Drosophila; format: in vivo; conditions: 100 nM compound, log rank test versus DMSO
[2] = target: T1, CK-1δ (Homo sapiens, UniProt P48730); assay: Kinetic studies on CK-1δ; format: biochemical; conditions: ATP 1 to 50 μM, casein 12.5 μM, double reciprocal plot
[3] = tested on: panel of 456 protein kinases; assay: KinomeScan selectivity screening on a kinase panel; format: binding, human; conditions: 10 μM, 456 kinases; number of kinases bound divided by distinct kinases tested
[4] = target: CDC like kinase 1 (CLK1) (Homo sapiens, UniProt P49759); assay: KinomeScan screening, CLK1; format: binding; conditions: 10 μM
[5] = target: CDC like kinase 4 (CLK4) (Homo sapiens, UniProt Q9HAZ1); assay: KinomeScan screening, CLK4; format: binding; conditions: 10 μM
Sequence of CDC like kinase 4 (CLK4) (Q9HAZ1 whole entry): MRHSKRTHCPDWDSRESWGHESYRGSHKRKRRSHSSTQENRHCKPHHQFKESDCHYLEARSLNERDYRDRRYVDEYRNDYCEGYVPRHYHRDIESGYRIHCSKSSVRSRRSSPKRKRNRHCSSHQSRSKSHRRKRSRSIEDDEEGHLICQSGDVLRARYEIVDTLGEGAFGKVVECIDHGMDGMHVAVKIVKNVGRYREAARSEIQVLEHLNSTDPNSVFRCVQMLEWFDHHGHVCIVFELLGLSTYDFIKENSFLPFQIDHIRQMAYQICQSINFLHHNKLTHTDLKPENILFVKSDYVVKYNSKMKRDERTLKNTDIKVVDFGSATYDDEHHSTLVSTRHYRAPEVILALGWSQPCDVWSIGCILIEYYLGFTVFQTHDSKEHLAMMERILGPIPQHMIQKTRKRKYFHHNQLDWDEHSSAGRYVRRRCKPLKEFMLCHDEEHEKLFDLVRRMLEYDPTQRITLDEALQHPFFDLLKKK

[6] = target: CK-1α1 (Homo sapiens, UniProt P48729); assay: KinomeScan screening, CK-1α1; format: binding; conditions: 10 μM
[7] = target: T1, CK-1δ; assay: KinomeScan screening, CK-1δ; format: binding; conditions: 10 μM
[8] = target: CK-1ε (Homo sapiens, UniProt P49674); assay: KinomeScan screening, CK-1ε; format: binding; conditions: 10 μM
Sequence of CK-1ε (P49674 whole entry): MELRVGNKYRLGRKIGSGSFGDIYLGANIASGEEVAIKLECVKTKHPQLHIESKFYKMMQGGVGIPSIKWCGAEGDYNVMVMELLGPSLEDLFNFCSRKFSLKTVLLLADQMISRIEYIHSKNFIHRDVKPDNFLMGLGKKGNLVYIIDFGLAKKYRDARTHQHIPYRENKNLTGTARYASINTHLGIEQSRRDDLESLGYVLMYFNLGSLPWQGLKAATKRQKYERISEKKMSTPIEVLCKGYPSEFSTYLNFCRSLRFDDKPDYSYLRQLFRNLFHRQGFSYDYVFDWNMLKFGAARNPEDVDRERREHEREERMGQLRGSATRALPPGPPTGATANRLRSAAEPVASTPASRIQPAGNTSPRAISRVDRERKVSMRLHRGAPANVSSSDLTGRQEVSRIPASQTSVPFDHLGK

[9] = target: CK-1γ2 (Homo sapiens, UniProt P78368); assay: KinomeScan screening, CK-1γ2; format: binding; conditions: 10 μM
Sequence of CK-1γ2 (P78368 whole entry): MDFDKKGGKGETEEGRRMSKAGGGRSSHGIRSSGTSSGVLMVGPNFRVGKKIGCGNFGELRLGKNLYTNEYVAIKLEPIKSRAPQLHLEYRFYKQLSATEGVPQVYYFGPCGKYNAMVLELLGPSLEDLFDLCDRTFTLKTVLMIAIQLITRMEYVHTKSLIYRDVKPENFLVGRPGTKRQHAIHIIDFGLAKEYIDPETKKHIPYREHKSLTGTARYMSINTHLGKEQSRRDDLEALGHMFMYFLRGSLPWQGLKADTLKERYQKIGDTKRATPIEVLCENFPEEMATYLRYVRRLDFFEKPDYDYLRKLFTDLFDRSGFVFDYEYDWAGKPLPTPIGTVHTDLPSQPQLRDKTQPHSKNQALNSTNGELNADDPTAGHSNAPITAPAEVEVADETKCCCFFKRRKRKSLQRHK

[10] = target: DYRK1A (Homo sapiens, UniProt Q13627); assay: KinomeScan screening, DYRK1A; format: binding; conditions: 10 μM
[11] = target: DYRK1B (Homo sapiens, UniProt Q9Y463); assay: KinomeScan screening, DYRK1B; format: binding; conditions: 10 μM
Sequence of DYRK1B (Q9Y463 whole entry): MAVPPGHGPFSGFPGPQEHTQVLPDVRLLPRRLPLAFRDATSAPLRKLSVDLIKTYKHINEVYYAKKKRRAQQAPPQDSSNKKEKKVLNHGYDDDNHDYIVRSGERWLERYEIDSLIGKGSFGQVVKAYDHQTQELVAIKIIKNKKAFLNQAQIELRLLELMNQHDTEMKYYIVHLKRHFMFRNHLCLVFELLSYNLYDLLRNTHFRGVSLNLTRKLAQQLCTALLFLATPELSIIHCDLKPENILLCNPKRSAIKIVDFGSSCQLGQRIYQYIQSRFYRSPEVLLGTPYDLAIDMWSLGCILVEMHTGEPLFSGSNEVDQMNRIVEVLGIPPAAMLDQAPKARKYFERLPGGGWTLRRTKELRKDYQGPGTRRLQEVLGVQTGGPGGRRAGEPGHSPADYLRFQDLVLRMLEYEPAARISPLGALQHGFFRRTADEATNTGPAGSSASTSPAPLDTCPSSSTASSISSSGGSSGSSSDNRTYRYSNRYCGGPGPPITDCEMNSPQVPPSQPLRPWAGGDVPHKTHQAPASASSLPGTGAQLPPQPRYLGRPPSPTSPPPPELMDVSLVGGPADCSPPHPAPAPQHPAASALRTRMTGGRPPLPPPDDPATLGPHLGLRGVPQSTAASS

[12] = target: fms-related tyrosine kinase 1 (FLT1) (Homo sapiens, UniProt P17948); assay: KinomeScan screening, FLT1; format: binding; conditions: 10 μM
Sequence of fms-related tyrosine kinase 1 (FLT1) (P17948 27-1338): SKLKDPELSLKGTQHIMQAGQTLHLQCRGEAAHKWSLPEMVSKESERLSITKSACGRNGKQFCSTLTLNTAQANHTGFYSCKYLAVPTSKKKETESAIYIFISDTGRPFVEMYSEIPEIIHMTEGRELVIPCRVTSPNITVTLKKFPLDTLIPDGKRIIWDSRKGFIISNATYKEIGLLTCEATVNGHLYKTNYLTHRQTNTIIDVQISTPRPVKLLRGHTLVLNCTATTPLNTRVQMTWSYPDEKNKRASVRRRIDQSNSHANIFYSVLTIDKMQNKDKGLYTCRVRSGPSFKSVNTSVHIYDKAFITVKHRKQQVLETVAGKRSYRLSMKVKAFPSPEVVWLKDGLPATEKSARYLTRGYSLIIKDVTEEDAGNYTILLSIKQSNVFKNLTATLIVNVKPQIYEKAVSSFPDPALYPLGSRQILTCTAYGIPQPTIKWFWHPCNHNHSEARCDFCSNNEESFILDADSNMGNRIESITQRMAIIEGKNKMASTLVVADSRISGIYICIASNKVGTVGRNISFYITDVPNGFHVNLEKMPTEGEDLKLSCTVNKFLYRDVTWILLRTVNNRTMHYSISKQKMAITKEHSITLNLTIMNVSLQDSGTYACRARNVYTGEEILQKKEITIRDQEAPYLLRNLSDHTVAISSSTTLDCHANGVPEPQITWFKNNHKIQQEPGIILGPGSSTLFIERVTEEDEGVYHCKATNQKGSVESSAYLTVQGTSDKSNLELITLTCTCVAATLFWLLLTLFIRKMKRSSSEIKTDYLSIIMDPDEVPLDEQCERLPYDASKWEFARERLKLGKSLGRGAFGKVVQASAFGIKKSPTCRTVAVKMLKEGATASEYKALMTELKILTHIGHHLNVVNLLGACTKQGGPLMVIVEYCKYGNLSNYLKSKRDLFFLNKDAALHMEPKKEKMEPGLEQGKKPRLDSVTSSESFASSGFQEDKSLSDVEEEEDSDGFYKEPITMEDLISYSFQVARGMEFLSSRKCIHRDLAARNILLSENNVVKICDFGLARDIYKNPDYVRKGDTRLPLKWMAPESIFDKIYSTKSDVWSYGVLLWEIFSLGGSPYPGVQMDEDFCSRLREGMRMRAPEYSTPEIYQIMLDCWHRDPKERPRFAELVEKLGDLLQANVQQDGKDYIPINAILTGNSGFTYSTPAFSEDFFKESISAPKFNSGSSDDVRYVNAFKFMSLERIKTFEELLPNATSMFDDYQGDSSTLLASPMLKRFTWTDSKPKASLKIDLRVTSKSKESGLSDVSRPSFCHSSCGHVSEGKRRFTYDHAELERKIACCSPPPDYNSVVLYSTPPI

[13] = target: T2, myosin light chain kinase 3 (MLCK) (Homo sapiens, UniProt Q32MK0); assay: KinomeScan screening, MLCK; format: binding; conditions: 10 μM
T2 sequence (Q32MK0 1-819): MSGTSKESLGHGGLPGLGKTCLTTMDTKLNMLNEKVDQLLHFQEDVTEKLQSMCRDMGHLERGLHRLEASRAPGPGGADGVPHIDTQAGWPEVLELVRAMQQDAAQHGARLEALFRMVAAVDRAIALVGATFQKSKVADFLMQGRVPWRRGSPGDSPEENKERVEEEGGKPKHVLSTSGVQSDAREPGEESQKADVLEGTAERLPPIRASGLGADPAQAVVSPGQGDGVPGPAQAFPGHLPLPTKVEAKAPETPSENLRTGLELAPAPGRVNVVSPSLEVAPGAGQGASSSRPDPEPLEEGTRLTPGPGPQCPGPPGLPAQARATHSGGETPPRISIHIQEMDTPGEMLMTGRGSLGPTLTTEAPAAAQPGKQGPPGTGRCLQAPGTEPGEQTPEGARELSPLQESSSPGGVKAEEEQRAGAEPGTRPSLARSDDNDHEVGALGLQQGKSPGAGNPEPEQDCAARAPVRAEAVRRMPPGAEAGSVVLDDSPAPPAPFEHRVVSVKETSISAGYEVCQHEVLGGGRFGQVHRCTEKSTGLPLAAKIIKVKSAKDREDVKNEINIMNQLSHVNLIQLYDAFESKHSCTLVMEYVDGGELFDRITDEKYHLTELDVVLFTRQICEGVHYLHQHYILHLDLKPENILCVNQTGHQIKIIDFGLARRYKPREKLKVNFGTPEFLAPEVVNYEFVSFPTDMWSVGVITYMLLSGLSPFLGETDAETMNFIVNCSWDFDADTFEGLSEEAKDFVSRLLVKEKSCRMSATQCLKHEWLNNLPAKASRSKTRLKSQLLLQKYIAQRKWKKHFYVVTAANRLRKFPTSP

[14] = target: platelet-derived growth factor receptor (PDGFRB) (Homo sapiens, UniProt P09619); assay: KinomeScan screening, PDGFRB; format: binding; conditions: 10 μM
Sequence of platelet-derived growth factor receptor (PDGFRB) (P09619 33-1106): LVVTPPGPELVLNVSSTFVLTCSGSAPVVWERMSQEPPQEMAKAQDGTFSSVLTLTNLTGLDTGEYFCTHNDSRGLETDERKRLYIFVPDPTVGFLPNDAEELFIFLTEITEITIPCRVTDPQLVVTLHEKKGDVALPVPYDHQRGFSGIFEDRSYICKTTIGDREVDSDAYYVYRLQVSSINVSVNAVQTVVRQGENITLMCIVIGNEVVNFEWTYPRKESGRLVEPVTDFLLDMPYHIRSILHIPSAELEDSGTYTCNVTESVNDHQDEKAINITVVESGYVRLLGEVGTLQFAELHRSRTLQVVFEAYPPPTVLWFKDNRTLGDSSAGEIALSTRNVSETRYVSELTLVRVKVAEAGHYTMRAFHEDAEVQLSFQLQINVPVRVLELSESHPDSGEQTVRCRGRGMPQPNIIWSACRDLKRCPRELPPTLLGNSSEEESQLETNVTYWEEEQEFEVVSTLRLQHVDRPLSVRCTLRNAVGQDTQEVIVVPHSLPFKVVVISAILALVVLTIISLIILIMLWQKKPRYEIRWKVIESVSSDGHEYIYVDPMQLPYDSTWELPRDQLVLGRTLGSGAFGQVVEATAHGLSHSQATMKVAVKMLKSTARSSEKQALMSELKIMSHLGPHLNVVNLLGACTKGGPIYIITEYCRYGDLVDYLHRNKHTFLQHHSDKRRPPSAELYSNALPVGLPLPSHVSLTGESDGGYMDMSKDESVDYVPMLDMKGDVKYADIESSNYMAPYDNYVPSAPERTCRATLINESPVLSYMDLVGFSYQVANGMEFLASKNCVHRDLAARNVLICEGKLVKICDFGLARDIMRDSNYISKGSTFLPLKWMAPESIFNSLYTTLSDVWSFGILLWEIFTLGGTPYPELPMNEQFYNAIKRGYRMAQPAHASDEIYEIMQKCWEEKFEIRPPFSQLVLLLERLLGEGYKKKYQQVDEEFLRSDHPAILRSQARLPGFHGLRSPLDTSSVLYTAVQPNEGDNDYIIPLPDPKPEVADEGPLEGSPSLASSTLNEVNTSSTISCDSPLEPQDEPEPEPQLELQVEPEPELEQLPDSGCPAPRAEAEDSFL

[15] = tested on: TDP-43 phosphorylation (pS409/410) in HEK293 cells; assay: Ethacrynic acid induced TDP-43 phosphorylation in HEK293 cells
[16] = PAMPA-BBB permeability assay; conditions: PAMPA vehicle PBS:EtOH (70:30)
[17] = target: T1, CK-1δ; format: biochemical
[18] = tested on: 290 kinases panel; conditions: cited from earlier work
[19] = tested on: amyotrophic lateral sclerosis (ALS); conditions: ALS patients; cited from earlier work
[20] = HEK293, 1.5 h pretreatment, 150 μM ethacrynic acid

T1 sequence (P48730 whole entry): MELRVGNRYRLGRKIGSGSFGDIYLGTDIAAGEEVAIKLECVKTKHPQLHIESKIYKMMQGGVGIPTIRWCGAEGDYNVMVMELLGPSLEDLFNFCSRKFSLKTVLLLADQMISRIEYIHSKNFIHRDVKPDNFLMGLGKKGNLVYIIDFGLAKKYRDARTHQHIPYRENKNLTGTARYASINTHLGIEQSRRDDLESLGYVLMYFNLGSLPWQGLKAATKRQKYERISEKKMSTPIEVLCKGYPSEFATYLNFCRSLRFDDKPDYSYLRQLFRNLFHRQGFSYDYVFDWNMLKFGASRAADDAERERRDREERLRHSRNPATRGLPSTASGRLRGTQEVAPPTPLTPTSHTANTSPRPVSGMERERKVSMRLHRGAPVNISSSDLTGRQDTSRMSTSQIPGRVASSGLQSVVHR

SMILES: O=C(Cc1ccc(Cl)cc1)Oc1nc2ccccc2s1 [Compound 9, (Benzothiazol-2-yl)-2-(4-chlorophenyl)acetate]
effect on fly lifespan [1]: did not significantly modify fly longevity

mechanism of CK-1δ inhibition with respect to ATP [2]: ATP competitive inhibition
selectivity score (S score) [3]: 0.04
inhibition of CLK1 [4]: inhibited
inhibition of CLK4 [5]: inhibited
inhibition of CK-1α1 [6]: inhibited
inhibition of CK-1δ [7]: inhibited
inhibition of CK-1ε [8]: inhibited
inhibition of CK-1γ2 [9]: inhibited
inhibition of DYRK1A [10]: inhibited
inhibition of DYRK1B [11]: inhibited
inhibition of FLT1 [12]: inhibited
inhibition of MLCK [13]: inhibited
inhibition of PDGFRB [14]: inhibited
SMILES: O=C(Cc1cccc(Cl)c1)Nc1nc2ccc(C(F)(F)F)cc2s1 [Compound 20, 2-(3-Chlorophenyl)-N-(6-(trifluoromethyl)benzothiazol-2-yl)acetamide]
effect on fly lifespan [1]: significantly increased
concentration with inhibition of TDP-43 phosphorylation [15, 20]: above 80 μM

mechanism of CK-1δ inhibition with respect to ATP [2]: ATP competitive inhibition
inhibition of CLK1 [4]: inhibited
inhibition of CLK4 [5]: inhibited
inhibition of CK-1α1 [6]: inhibited
inhibition of CK-1δ [7]: inhibited
inhibition of CK-1ε [8]: inhibited
inhibition of CK-1γ2 [9]: inhibited
inhibition of DYRK1A [10]: inhibited
inhibition of DYRK1B [11]: inhibited
inhibition of FLT1 [12]: inhibited
inhibition of MLCK [13]: inhibited
inhibition of PDGFRB [14]: inhibited
solubility in the assay vehicle [16]: low solubility
SMILES: O=C(Cc1ccccc1Cl)Nc1nc2ccc(C(F)(F)F)cc2s1 [Compound 24, 2-(2-Chlorophenyl)-N-(6-(trifluoromethyl)benzothiazol-2-yl)acetamide]
effect on fly lifespan [1]: significantly increased
concentration with moderate inhibition of TDP-43 phosphorylation [15, 20]: ≥ 1.25 µM

mechanism of CK-1δ inhibition with respect to ATP [2]: ATP competitive inhibition
SMILES: COc1ccccc1CC(=O)Nc1nc2ccc(C(F)(F)F)cc2s1 [Compound 34, N-(6-(Trifluoromethyl)benzothiazol-2-yl)-2-(2-methoxyphenyl)acetamide]
concentration with inhibition of TDP-43 phosphorylation [15, 20]: above 80 μM

fold less potent than 20 and 24 as CK-1δ inhibitor [17]: 100 fold
SMILES: COc1ccc2nc(NC(=O)Cc3ccccc3OC)sc2c1 [Compound 35, N-(6-Methoxybenzothiazol-2-yl)-2-(2-methoxyphenyl)acetamide]
effect on fly lifespan [1]: significantly increased

SMILES: COc1cccc(CC(=O)Nc2nc3ccc(C(F)(F)F)cc3s2)c1 [Compound 38, N-(6-(Trifluoromethyl)benzothiazol-2-yl)-2-(3-methoxyphenyl)acetamide]
concentration giving significant reduction of TDP-43 phosphorylation [15, 20]: 5 µM

SMILES: O=C(Cc1cccc(C(F)(F)F)c1)Nc1nc2ccc(C(F)(F)F)cc2s1 [Compound 41, N-(6-(Trifluoromethyl)benzothiazol-2-yl)-2-(3-(trifluoromethyl)phenyl)acetamide]
fold reduction in TDP-43 phosphorylation ([15]; HEK293, by 10 μM inhibitor): greater than 2 fold

SMILES: O=C(Cc1ccccc1)Nc1nc2ccc(C(F)(F)F)cc2s1 [Compound 46, N-(6-(Trifluoromethyl)benzothiazol-2-yl)-2-phenylacetamide]
concentration with nearly complete absence of TDP-43 phosphorylation ([15]; HEK293, 1.5 h pretreatment, 150 μM ethacrynic acid, range 1.25-160 μM): ≥ 2.5 µM

mechanism of CK-1δ inhibition with respect to ATP [2]: ATP competitive inhibitor
SMILES: COc1cc(OC)c(C=C2C(=O)Nc3ccccc32)c(OC)c1 [IC261, reference compound]

SMILES: CS(=O)(=O)CCNCc1ccc(-c2ccc3ncnc(Nc4ccc(OCc5cccc(F)c5)c(Cl)c4)c3c2)o1 [Lapatinib]
S score [18]: 0.010

SMILES: Nc1nc2ccc(OC(F)(F)F)cc2s1 [Riluzole]
extension of survival [19]: 2–3 months

SMILES: CCN(CC)CCNC(=O)c1c(C)[nH]c(/C=C2\C(=O)Nc3ccc(F)cc32)c1C [Sunitinib]
S score [18]: 0.57

— paper PMC3969104 (Journal of Medicinal Chemistry, 2014)
